Patent publication US20230405006A1, “COMBINATION PHARMACEUTICAL COMPOSITION AND TREATMENT METHOD” (CARNA BIOSCIENCES, INC., priority 2020, published 2023)

Key:
[1] = tested on: mouse colorectal cancer cell line CT26.WT; assay: Antitumor effect in allograft (syngeneic) mouse model with mouse colorectal cancer cell line CT26.WT; type: in vivo; details: for tumor growth (time course of tumor volume): CT26.WT subcutaneous, FIG. 1
Procedure: The antitumor effect of the compound according to the present invention was examined by using a syngeneic mouse tumor model with the mouse colorectal cancer cell line CT26.WT (subcutaneous transplantation).
(§1) To RPMI-1640 medium (Life Technologies, No. A1049101), 10% FBS (Biowest) and 1% penicillin streptomycin (NACALAI TESQUE, INC.) were added to prepare a cell culture medium (hereinafter, referred to as the medium 1). CT26.WT cells (ATCC) were cultured with the medium 1 in a flask in a 5% CO2 incubator.
The cell density of CT26.WT cells was adjusted with RPMI-1640 medium (containing 1% penicillin streptomycin, hereinafter, referred to as the medium 2) to 5×10^6 cells/mL; thus a cell preparation solution for transplantation was produced. Into the back of each BALB/cCrslc mouse (female, 8-week-old, Japan SLC, Inc.), 0.1 mL of the cell preparation solution for transplantation was subcutaneously transplanted. On day 3 after the transplantation of cancer cells, the cancer-bearing mice were grouped in such a manner that the means of tumor volume (see a calculation formula below) approximated to each other.
As a sample solution for administration of the test substance, a 1.5 mg/mL solution was prepared. The test substance (71.9 mg) was dissolved in DMSO (2.4 mL, NACALAI TESQUE, INC.), to which polyethylene glycol #400 (24.0 mL, NACALAI TESQUE, INC.) was added and mixed well, and 21.5 mL of 30% (w/v) aqueous solution of 2-hydroxypropyl-β-cyclodextrin (HP-β-CD, Wacker Chemical AG) was then added thereto to produce a 1.5 mg/mL sample solution for administration. […]
Forced oral administration of 0.1 mL of the test substance or a solvent per 10 g body weight on that day (15 mg/kg) was performed to each mouse with transplanted cancer cells (six mice per group) twice per day (interval: 6 hours or longer) from day 3 to day 21 after the transplantation. […] The mice were followed up until day 48 after the transplantation, and the tumor diameter of each mouse was measured to calculate the tumor volume by using the following formula several times per week for evaluation of the antitumor effect. […]

[2] = tested on: mouse B-cell lymphoma cell line A20; assay: Antitumor effect in allograft (syngeneic) mouse model with mouse B-cell lymphoma cell line A20; type: in vivo
Procedure: The antitumor effect of the compound according to the present invention was examined by using a syngeneic mouse tumor model with the mouse B-cell lymphoma cell line A20 (subcutaneous transplantation).
as §1, with “FBS (HyClone), 0.05 mM 2-mercaptoethanol,” for “FBS (Biowest)”, “medium 3). A20 cell” for “medium 1). CT26.WT cells”, “medium 3” for “medium 1”
The density of A20 cells was adjusted with the medium 2 to 5×10^7 cells/mL; thus a cell preparation solution for transplantation was produced. […]
Forced oral administration of 0.1 mL of the test substance or a solvent per 10 g body weight on that day (15 mg/kg) was performed to each mouse with transplanted cancer cells (six mice per group) twice per day (interval: 6 hours or longer) from day 3 to day 14 after the transplantation. […] The mice were followed up until day 46 after the transplantation, and the tumor diameter of each mouse was measured to calculate the tumor volume by using the same formula as in Example 1 several times per week for evaluation of the antitumor effect.
In addition, tumor was excised from each mouse on day 46 after the transplantation, and the tumor weight was measured.

Structure (SMILES): Nc1nc(-c2cccc(-n3ccc4cc(C5CC5)cc(F)c4c3=O)c2CO)c2cc(C3=CCN(C4COC4)CC3)[nH]c2n1 [Compound (I-A), 2-(3-{2-amino-6-[1-(oxetan-3-yl)-1,2,3,6-tetrahydropyridin-4-yl]-7H-pyrrolo[2,3-d]pyrimidin-4-yl}-2-(hydroxymethyl)phenyl)-6-cyclopropyl-8-fluoroisoquinolin-1(2H)-one]
- tumor growth (time course of tumor volume) ([1]; I-A 15 mg/kg oral twice per day in combination with anti-PD-1 antibody 10 mg/kg i.p. twice per week): significant tumor growth suppression/tumor regression effect
- complete regression of tumor (mice with transplanted tumor) ([1]; I-A 15 mg/kg oral twice per day in combination with anti-PD-1 antibody 10 mg/kg i.p., CT26.WT, six mice per group): five of the six
- tumor growth (time course of tumor volume) ([1]; I-A alone, 15 mg/kg oral twice per day, day 3 to 21, BALB/c mice, followed to day 48): suppressed tumor growth
- tumor growth / tumor weight on day 46 after the transplantation ([2]; I-A 15 mg/kg oral twice per day (day 3 to 14) in combination with anti-PD-1 antibody 10 mg/kg i.p. twice per week, A20 subcutaneous, FIG. 2): significant tumor growth suppression/tumor regression effect
- complete regression of tumor (mice with transplanted tumor) ([2]; I-A 15 mg/kg oral twice per day in combination with anti-PD-1 antibody 10 mg/kg i.p., A20, six mice per group): five of the six
